Values quoted from earlier work, collected in US8697141B2, “Method and composition for preventing and healing osteonecrosis of the jaw” (Micropure, Inc., priority 2008, dated 2014).
Like-named read-outs stand apart in the source and are kept apart here.

Assays:
ONJ [1] = conditions: oral users, 208 patients
osteoblasts [2] = conditions: dose and time dependent
endothelial cells = conditions: dose and time dependent
fibroblasts = conditions: dose and time dependent
[3] = system: human osteoblast-like cells; conditions: high concentrations over a prolonged time interval
osteoblasts [4] = conditions: chlorhexidine at 0.12%
[5] = system: periodontal ligament cells; conditions: chlorhexidine at 0.12%
ONJ [6] = conditions: 0.12% chlorhexidine; out of 24 patients
[7] = system: human gingival fibroblasts; conditions: chlorhexidine at 0.12%
[8] = system: human gingival fibroblasts; conditions: 0.05 mM
C. albicans = conditions: time and dose dependent
[9] = system: capillary neoangiogenesis
bone vascularity = conditions: rats
[10] = system: human gingival fibroblasts; conditions: low concentrations
keratinocytes = conditions: low concentrations
Bacteroides gingivalis = conditions: 200 ppm, at several time points and different pH
DUWL biofilms = conditions: after 5 days of treatment
[11] = in vivo
bacteria = conditions: exposures as short as 10 seconds
S. mutans = conditions: 200 ppm, within 10 seconds of application

NCCCC(O)(P(=O)(O)O)P(=O)(O)O [alendronate]
ONJ prevalence rate (ONJ [1]): 4%

N=C(NCCCCCCNC(=N)NC(=N)Nc1ccc(Cl)cc1)NC(=N)Nc1ccc(Cl)cc1.O=C(O)[C@H](O)[C@@H](O)[C@H](O)[C@H](O)CO.O=C(O)[C@H](O)[C@@H](O)[C@H](O)[C@H](O)CO [chlorhexidine digluconate]
apoptosis and necrosis (osteoblasts [2]): induced apoptosis and led to necrosis | apoptosis and necrosis (endothelial cells): induced apoptosis and led to necrosis | apoptosis and necrosis (fibroblasts): induced apoptosis and led to necrosis

[H]/N=C(\N/C(=N/[H])NCCCCCCNC(=N)NC(=N)Nc1ccc(Cl)cc1)Nc1ccc(Cl)cc1 [chlorhexidine]
cell survival [3]: adverse effect on the survival | LDH release compared with controls (osteoblasts [4]): elevated and significant LDH release | LDH release compared with controls [5]: elevated and significant LDH release | patients with ONJ progression (ONJ [6]): 13 patients | patients with ONJ resolution (ONJ [6]): 3 patients | patients with no change in ONJ status (ONJ [6]): 8 patients | LDH release compared with controls [7]: elevated and significant LDH release

[O][Cl+][O-] [chlorine dioxide]
induction of apoptosis ([8]; 0.1 mM and 0.5 mM ClO2): not to induce apoptosis significantly | potassium leakage (C. albicans): marked increase

OO [hydrogen peroxide]
induction of apoptosis ([8]; 1.0 mM): induced apoptosis at all concentrations tested

NCCC(O)(P(=O)(O)O)P(=O)(O)O [pamidronate]
new formation of capillaries from blood vessels [9]: inhibit the new formation of capillaries from blood vessels | bone vascularity (bone vascularity): reduce bone vascularity

O=P(O)(O)C(O)(Cn1ccnc1)P(=O)(O)O [zoledronic acid]
apoptosis of oral mucosal cells [10]: gene-regulated induced apoptosis | apoptosis of oral mucosal cells (keratinocytes): gene-regulated induced apoptosis

stabilized chlorine dioxide
in vitro kill (Bacteroides gingivalis): 100% | heterotrophic plate count (HPC) value (DUWL biofilms): 0 | VSCs in expired mouth air [11]: remarkable decrease in VSCs | LDH release compared with controls (osteoblasts [4]): did not increase the release of LDH | LDH release compared with controls [5]: did not increase the release of LDH | reduction in bacteria (bacteria): dramatic reduction in bacteria | in vitro kill rate (S. mutans): 99% | LDH release compared with controls [7]: did not increase the release of LDH
